In PubChem BioAssay AID1963870 (Molecular Pharmacology Branch, DTP, NCI, 2024):
Values joined by “and” are separate entries in the source; they are usually repeats but may differ in a detail not shown here. Equal values may be shown once.

Test system: 292921-168-R-J2-PDC KRAS tumor spheroid viability
Experiment: Anticancer human tumor 292921-168-R-J2-PDC patient-derived pancreatic carcinoma cell line growth inhibition [KRAS2]
Settings: spheroids with HUVEC and MSC; for viability, T/C: stronger effect = lower value
Procedure, shortened: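 Combination screen of spheroid viability in tumor-cell co-cultures with endothelial (HUVEC) and mesenchymal stem cell stroma. Each agent was tested in half-log dilutions, topping at clinical Cmax or at 10 microM without a known Cmax.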

[1] = curve of first compound, second compound 0.1 µM
[2] = curve of first compound, second compound 0.316 µM
[3] = curve of first compound, second compound 1 µM
[4] = curve of first compound, second compound 3.16 µM
[5] = curve of first compound, second compound 10 µM
[6] = second compound 0.1 µM, first compound 0.01 µM
[7] = second compound 0.1 µM, first compound 0.0316 µM
[8] = second compound 0.1 µM, first compound 0.1 µM
[9] = second compound 0.1 µM, first compound 0.316 µM
[10] = second compound 0.1 µM, first compound 1 µM
[11] = second compound 0.1 µM, first compound 3.16 µM
[12] = second compound 0.316 µM, first compound 0.01 µM
[13] = second compound 0.316 µM, first compound 0.0316 µM
[14] = second compound 0.316 µM, first compound 0.1 µM
[15] = second compound 0.316 µM, first compound 0.316 µM
[16] = second compound 0.316 µM, first compound 1 µM
[17] = second compound 0.316 µM, first compound 3.16 µM
[18] = second compound 1 µM, first compound 0.01 µM
[19] = second compound 1 µM, first compound 0.0316 µM
[20] = second compound 1 µM, first compound 0.1 µM
[21] = second compound 1 µM, first compound 0.316 µM
[22] = second compound 1 µM, first compound 1 µM
[23] = second compound 1 µM, first compound 3.16 µM
[24] = second compound 3.16 µM, first compound 0.01 µM
[25] = second compound 3.16 µM, first compound 0.0316 µM
[26] = second compound 3.16 µM, first compound 0.1 µM
[27] = second compound 3.16 µM, first compound 0.316 µM
[28] = second compound 3.16 µM, first compound 1 µM
[29] = second compound 3.16 µM, first compound 3.16 µM
[30] = second compound 10 µM, first compound 0.01 µM
[31] = second compound 10 µM, first compound 0.0316 µM
[32] = second compound 10 µM, first compound 0.1 µM
[33] = second compound 10 µM, first compound 0.316 µM
[34] = second compound 10 µM, first compound 1 µM
[35] = second compound 10 µM, first compound 3.16 µM
[36] = second compound 0.1 µM, first compound 0.000316 µM
[37] = second compound 0.1 µM, first compound 0.001 µM
[38] = second compound 0.1 µM, first compound 0.00316 µM
[39] = second compound 0.316 µM, first compound 0.000316 µM
[40] = second compound 0.316 µM, first compound 0.001 µM
[41] = second compound 0.316 µM, first compound 0.00316 µM
[42] = second compound 1 µM, first compound 0.000316 µM
[43] = second compound 1 µM, first compound 0.001 µM
[44] = second compound 1 µM, first compound 0.00316 µM
[45] = second compound 3.16 µM, first compound 0.000316 µM
[46] = second compound 3.16 µM, first compound 0.001 µM
[47] = second compound 3.16 µM, first compound 0.00316 µM
[48] = second compound 10 µM, first compound 0.000316 µM
[49] = second compound 10 µM, first compound 0.001 µM
[50] = second compound 10 µM, first compound 0.00316 µM
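Also: drug exposure lasted seven days after spheroids formed for three days.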
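For viability, T/C in this document: percent of DMSO vehicle control viability which is 100%.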

`CC1COCCN1c1cc(-c2ccnn2C)c2ccnc(-c3ccn[nH]3)c2n1` (stereo unspecified) + C=CC(=O)N1CCN(c2nc(=O)n(-c3c(C)ccnc3C(C)C)c3nc(-c4c(O)cccc4F)c(F)cc23)C(C)C1 gave an IC50 [1] of less than 0.01 µM, an IC50 [2] of less than 0.01 µM and an IC50 [3] of less than 0.01 µM. It also gave an IC50 [4] of less than 0.01 µM, an IC50 [5] of less than 0.01 µM and a viability, T/C [6] of 41.9%. It also gave a viability, T/C [7] of 19.9%, a viability, T/C [8] of 15% and a viability, T/C [9] of 13.6%. For the same compound, the viability, T/C [10] was 16.1%, the viability, T/C [11] was 18.3% and the viability, T/C [12] was 32.8%. The viability, T/C [13] was 20.1%, the viability, T/C [14] was 13.5% and the viability, T/C [15] was 14.6%. The viability, T/C [16] was 17.5%, the viability, T/C [17] was 20% and the viability, T/C [18] was 30.3%. It also gave a viability, T/C [19] of 16.8%, a viability, T/C [20] of 12.9% and a viability, T/C [21] of 15.5%. It also gave a viability, T/C [22] of 18.7%, a viability, T/C [23] of 23.2% and a viability, T/C [24] of 17.1%. The viability, T/C [25] was 12%, the viability, T/C [26] was 12.4% and the viability, T/C [27] was 16.8%. It also gave a viability, T/C [28] of 21.8%, a viability, T/C [29] of 24.1% and a viability, T/C [30] of 12.1%. The viability, T/C [31] was 12.7%, the viability, T/C [32] was 14.7% and the viability, T/C [33] was 19.1%. It also gave a viability, T/C [34] of 21.3% and a viability, T/C [35] of 24.8%.
`COc1cc2nccc(Oc3ccc(NC(=O)C4(C(=O)Nc5ccc(F)cc5)CC4)cc3)c2cc1OC` + C=CC(=O)N1CCN(c2nc(=O)n(-c3c(C)ccnc3C(C)C)c3nc(-c4c(O)cccc4F)c(F)cc23)C(C)C1 was tested, and the IC50 [1] was 1.96 µM, the IC50 [2] was 2 µM and the IC50 [3] was 1.68 µM. It also gave an IC50 [4] of 0.822 µM, an IC50 [5] of less than 0.0316 µM and a viability, T/C [7] of 102%. The viability, T/C [8] was 102%, the viability, T/C [9] was 103% and the viability, T/C [10] was 79.6%. The viability, T/C [11] was 28.9%, the viability, T/C (second compound 0.1 µM, first compound 10 µM) was 18.6% and the viability, T/C [13] was 122%. For the same compound, the viability, T/C [14] was 112%, the viability, T/C [15] was 102% and the viability, T/C [16] was 77%. For the same compound, the viability, T/C [17] was 30.9%, the viability, T/C (second compound 0.316 µM, first compound 10 µM) was 19.8% and the viability, T/C [19] was 111%. For the same compound, the viability, T/C [20] was 108%, the viability, T/C [21] was 96.3% and the viability, T/C [22] was 69.3%. It also gave a viability, T/C [23] of 27%, a viability, T/C (second compound 1 µM, first compound 10 µM) of 17.2% and a viability, T/C [25] of 74.1%. The viability, T/C [26] was 77.6%, the viability, T/C [27] was 62.9% and the viability, T/C [28] was 49.6%. The viability, T/C [29] was 18.9%, the viability, T/C (second compound 3.16 µM, first compound 10 µM) was 14% and the viability, T/C [31] was 18.9%. For the same compound, the viability, T/C [32] was 25.4%, the viability, T/C [33] was 15.7% and the viability, T/C [34] was 22.5%. It also gave a viability, T/C [35] of 11.1% and a viability, T/C (second compound 10 µM, first compound 10 µM) of 6.69%.
Work on `CC(C)n1nc(-c2ccc3oc(N)nc3c2)c2c(N)ncnc21` + COc1cc2nc(C)nc(NC(C)c3cc(N)cc(C(F)(F)F)c3)c2cc1OC1CCOC1 yielded an IC50 [1] of 0.00329 µM, an IC50 [2] of 0.00394 µM and an IC50 [3] of 0.00272 µM. For the same compound, the IC50 [4] was 0.00134 µM, the IC50 [5] was less than 0.000316 µM and the viability, T/C [36] was 35%. The viability, T/C [37] was 74.8%, the viability, T/C [38] was 46.2% and the viability, T/C [6] was 38.8%. It also gave a viability, T/C [7] of 28.1%, a viability, T/C [8] of 26.2% and a viability, T/C [39] of 88%. The viability, T/C [40] was 73.2%, the viability, T/C [41] was 53.6% and the viability, T/C [12] was 35.7%. It also gave a viability, T/C [13] of 29.4%, a viability, T/C [14] of 24.1% and a viability, T/C [42] of 81.1%. For the same compound, the viability, T/C [43] was 68.9%, the viability, T/C [44] was 47% and the viability, T/C [18] was 30.5%. For the same compound, the viability, T/C [19] was 23.7%, the viability, T/C [20] was 21.2% and the viability, T/C [45] was 64.9%. It also gave a viability, T/C [46] of 54.2%, a viability, T/C [47] of 37.8% and a viability, T/C [24] of 26.3%. The viability, T/C [25] was 23.8%, the viability, T/C [26] was 20.6% and the viability, T/C [48] was 32.7%. It also gave a viability, T/C [49] of 26.4%, a viability, T/C [50] of 24.3% and a viability, T/C [30] of 17.7%. It also gave a viability, T/C [31] of 16.7% and a viability, T/C [32] of 15.5%.
In the case of `C=CC(=O)N1CCN(c2nc(=O)n(-c3c(C)ccnc3C(C)C)c3nc(-c4c(O)cccc4F)c(F)cc23)C(C)C1` (stereo unspecified), the IC50 (compound alone, run of 08/26/2021) is reported as 5.55 µM [middle of 5 runs] and the IC50 (compound alone, run of 09/02/2021) is reported as 5.47 µM [middle of 6 runs].
`CC(C)n1nc(-c2ccc3oc(N)nc3c2)c2c(N)ncnc21` + CNCc1ccccc1-c1csc(C(C)Nc2nc(C)nc3cc(OC)c(OC)cc23)c1 was tested, and the IC50 [1] was 0.00306 µM, the IC50 [2] was 0.00208 µM and the IC50 [3] was 0.000991 µM. For the same compound, the IC50 [4] was less than 0.000316 µM, the IC50 [5] was less than 0.000316 µM and the viability, T/C [36] was 76.3%. For the same compound, the viability, T/C [37] was 63.9%, the viability, T/C [38] was 50.2% and the viability, T/C [6] was 36.2%. For the same compound, the viability, T/C [7] was 25.3%, the viability, T/C [8] was 23.7% and the viability, T/C [39] was 79%. It also gave a viability, T/C [40] of 60.7%, a viability, T/C [41] of 43.3% and a viability, T/C [12] of 33.5%. It also gave a viability, T/C [13] of 24.5%, a viability, T/C [14] of 21.5% and a viability, T/C [42] of 74.4%. For the same compound, the viability, T/C [43] was 50%, the viability, T/C [44] was 33.6% and the viability, T/C [18] was 25.7%. The viability, T/C [19] was 22.7%, the viability, T/C [20] was 19% and the viability, T/C [45] was 1.37%. The viability, T/C [46] was 0.62%, the viability, T/C [47] was 0.91% and the viability, T/C [24] was 0.17%. It also gave a viability, T/C [25] of 0.67%, a viability, T/C [26] of 0.43% and a viability, T/C [48] of 0.08%. The viability, T/C [49] was 0.56%, the viability, T/C [50] was 0.08% and the viability, T/C [30] was 0.09%. It also gave a viability, T/C [31] of 0.85% and a viability, T/C [32] of 0.31%.
In the case of `Cn1nccc1Nc1nccc(-c2cc3c(s2)C(C)(C)N(CCN2CCOCC2)C3=O)n1`, the viability, T/C (compound 0.0316 µM) is reported as 80.7% [middle of 5 runs], the viability, T/C (compound 0.1 µM) is reported as 45.7% [middle of 5 runs] and the viability, T/C (compound 0.316 µM) is reported as 21.1% [middle of 5 runs]. For the same compound, the viability, T/C (compound 1 µM) was 13.4% [middle of 4 runs], the viability, T/C (compound 3.16 µM) was 11.2% [middle of 4 runs] and the viability, T/C (compound 10 µM) was 11.7% [middle of 5 runs]. The IC50 (curve of compound) was 86 nM [middle of 5 runs].
`CCNC(=O)CC1N=C(c2ccc(Cl)cc2)c2cc(OC)ccc2-n2c(C)nnc21` (stereo unspecified) was tested, and the viability, T/C (compound 0.0316 µM) was 97.6% and 105% (2×), the viability, T/C (compound 0.1 µM) was 101% and 90.5% and 99.3% and the viability, T/C (compound 0.316 µM) was 68.9% and 65.5% and 77.4%. For the same compound, the viability, T/C (compound 1 µM) was 61.3% and 61.7% and 65.3%, the viability, T/C (compound 3.16 µM) was 55.7% and 53.3% and 49.1% and the viability, T/C (compound 10 µM) was 47.1% and 38.7% and 48.1%. For the same compound, the IC50 (curve of compound) was > 10 µM and 2.93 µM and 4.76 µM.
